This note sets out measurements from ChEMBL document CHEMBL1201862, “PubChem BioAssay data set” (2004).

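Step 1: Grow cells in 96-well plates. Step 2: Expose to compound for 48 hours at 5 concentrations. Step 3: Interpolate endpoints linearly; if unreached, use highest concentration. Here, GI50 denotes the concentration required for 50% inhibition of growth.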 Active and inactive are the calls of the source. Cut-off read from the data, not from the text of the source: active = GI50 up to about 1.1 µM and inactive = higher.

Some test systems named below: A498; CAKI-1; COLO 205; DU-145; HCC 2998; HCT-116; HCT-15; HOP-62; HOP-92; HT-29; K562; KM12; M14; NCI-H460; OVCAR-3; SF-268; SK-MEL-5; SN12C; U-251; UACC-257.
Holding throughout (test): inhibition of tumour cell growth, NCI panel, 48 h

On to `CCCCn1c2c(n(CCCC)c1=S)-c1c(n(CCCC)c(=S)n1CCCC)S[Se][Se]S2`, for which the GI50 in the assay with A498 was 38.7 µM (inactive); with CAKI-1 it was 1.62 µM (inactive); with COLO 205, 1.62 µM (inactive); in the assay with DU-145 it was 16.9 µM (inactive); in the assay on HCC 2998, 23.6 µM (inactive); in the assay with HCT-116 it was 4.27 µM (inactive). Further, the GI50 in the assay on HCT-15 was 2.94 µM; in the assay with HOP-62, 8.83 µM (inactive); in the assay with HOP-92, 0.942 µM (active); in the assay on HT-29 it was 7.23 µM (inactive); in the assay with K562, 1.63 µM (inactive); with KM12 it was 18.7 µM (inactive). The GI50 was 8.59 µM (inactive) with M14; 9.95 µM (inactive) with NCI-H460; 0.931 µM (active) with OVCAR-3; 7.13 µM (inactive) in the assay on SF-268; 5.85 µM (inactive) with SK-MEL-5; 7.11 µM (inactive) in the assay on SN12C. Moreover, the figures for the GI50 in the assay on U-251 and in the assay with UACC-257 were 4.37 µM (inactive) and 8.87 µM (inactive), respectively.
As to `OCc1ccc2c(c1)CC1(C2)Cc2cc3c(cc2C1)CCC3`, the GI50 is 5.86 µM (inactive) in the assay on A498; 6.31 µM (inactive) in the assay on CAKI-1; 2.51 µM (inactive) with COLO 205; 5.89 µM (inactive) in the assay on DU-145; 6.12 µM (inactive) in the assay on HCC 2998; 3.72 µM (inactive) in the assay with HCT-116. Further, the GI50 is 2.92 µM with HCT-15; 4.7 µM (inactive) with HOP-62; 8.99 µM (inactive) in the assay with HOP-92; 2.22 µM (inactive) in the assay on HT-29; 0.585 µM (active) in the assay with K562; 1.9 µM (inactive) in the assay with KM12. The GI50 in the assay with M14 is 3.27 µM (inactive); with NCI-H460, 3.87 µM (inactive); in the assay on OVCAR-3, 3.02 µM (inactive); in the assay on SF-268 it was 17.5 µM (inactive); with SK-MEL-5, 2.3 µM (inactive); with SN12C, 2.45 µM (inactive). Also, the values for the GI50 in the assay on U-251 and with UACC-257 were 2.99 µM (inactive) and 7.48 µM (inactive), respectively.
Turning to `COc1cccc(N(CN2C(=O)CCC2C(=O)O)C(C)=O)c1` (stereo not given), the GI50 in the assay with A498, with CAKI-1, in the assay with COLO 205, in the assay on DU-145, with HCC 2998 and in the assay on HCT-116 was > 100 µM (inactive) in each case. In addition, the GI50 in the assay on HCT-15 is over 100 µM; with HOP-62 it was > 100 µM (inactive); in the assay with HOP-92, > 100 µM (inactive); with HT-29, > 100 µM (inactive); in the assay with K562 it was > 100 µM (inactive); in the assay on KM12, > 100 µM (inactive). Moreover, the GI50 in the assay on M14, in the assay on NCI-H460, in the assay with OVCAR-3, with SF-268, in the assay on SK-MEL-5 and in the assay on SN12C was > 100 µM (inactive) each time. Moreover, the GI50 in the assay with U-251 and in the assay with UACC-257 was > 100 µM (inactive) throughout.
In the case of `O=C(Nc1ccccc1)c1cc2ccccc2c(/N=N\c2cccc([N+](=O)[O-])c2)c1O`, the GI50 with A498, in the assay on CAKI-1, in the assay with COLO 205, in the assay on DU-145, in the assay on HCC 2998 and with HCT-116 was > 100 µM (inactive) in each case. Moreover, the GI50 with HCT-15 is over 100 µM; in the assay with HOP-62 it was 41.1 µM (inactive); in the assay on HOP-92, > 100 µM (inactive); in the assay on HT-29 it was > 100 µM (inactive); in the assay with K562, 89.3 µM (inactive); in the assay on KM12, > 100 µM (inactive). Further, the GI50 is > 100 µM (inactive) with M14; > 100 µM (inactive) in the assay with NCI-H460; > 100 µM (inactive) in the assay with OVCAR-3; 48.6 µM (inactive) with SF-268; > 100 µM (inactive) with SK-MEL-5; > 100 µM (inactive) in the assay on SN12C. Besides, the GI50 in the assay on U-251 was 24.6 µM (inactive); with UACC-257, > 100 µM (inactive).
For the molecule `CCc1nc(N)nc(N)c1-c1ccc([N+](=O)[O-])c(NCc2ccccc2)c1`, the GI50 in the assay on A498 was 15.5 µM (inactive); in the assay with CAKI-1, 13.7 µM (inactive); in the assay with COLO 205 it was 14.7 µM (inactive); in the assay on DU-145, 14.9 µM (inactive); in the assay with HCC 2998, 15.2 µM (inactive); in the assay with HCT-116 it was 7.36 µM (inactive). Moreover, the GI50 is 12.3 µM with HCT-15; 12.4 µM (inactive) in the assay on HOP-62; 10.6 µM (inactive) in the assay with HOP-92; 7.91 µM (inactive) with HT-29; 5.2 µM (inactive) in the assay on K562; 17.3 µM (inactive) in the assay on KM12. Also, the GI50 with M14 is 12.4 µM (inactive); with NCI-H460 it was 6.17 µM (inactive); in the assay on OVCAR-3, 13.2 µM (inactive); in the assay with SF-268, 14.9 µM (inactive); with SK-MEL-5, 6.05 µM (inactive); in the assay on SN12C, 20 µM (inactive). Also, the GI50 in the assay with U-251 and in the assay with UACC-257 was 12.8 µM (inactive) each time.
Turning to `O=c1cc(-c2ccccc2)oc2ccc(Cl)cc12` [6-CHLOROFLAVONE], the GI50 was > 68.5 µM (inactive) in the assay with A498; > 62.1 µM (inactive) with CAKI-1; > 61.8 µM (inactive) in the assay on COLO 205; > 56.6 µM (inactive) in the assay on DU-145; > 56.4 µM (inactive) with HCC 2998; 46.6 µM (inactive) with HCT-116. The GI50 is over 100 µM in the assay with HCT-15; 44.7 µM (inactive) in the assay with HOP-62; 22.8 µM (inactive) in the assay on HOP-92; > 100 µM (inactive) with HT-29; > 74.6 µM (inactive) in the assay on K562; > 64.7 µM (inactive) with KM12. The GI50 in the assay with M14 was 65.5 µM (inactive); in the assay with NCI-H460, > 100 µM (inactive); in the assay on OVCAR-3, > 100 µM (inactive); in the assay with SF-268 it was 31.8 µM (inactive); in the assay with SK-MEL-5, > 100 µM (inactive); in the assay on SN12C, > 69.8 µM (inactive). The GI50 with U-251 is 37.7 µM (inactive); with UACC-257, > 54.5 µM (inactive).
